The values that follow come from patent publication US20090247520A1, “INHIBITORS OF ANTIGEN RECEPTOR-INDUCED NF-kappa B ACTIVATION” (The Burnham Institute for Medical Research, priority 2008, published 2009).

Assay [1] relates to PMA/Ionomycin-induced NF-κB reporter gene activity. As to the kind of experiment: NF-κB luciferase reporter gene assay, PMA/Ionomycin-stimulated HEK293-NF-κB-luc cells. Conditions: for IC50: Table II, read-out: IC50, Inhibition of antigen receptor-mediated Nf-κB; for inhibition of PMA/Ionomycin-induced NF-κB luciferase activity: HEK293. It counts as cell-based. The source says:
The strategy for compound library screening entailed using phorbol ester (phorbol myristic acetate [PMA]) and Ca^2+-ionophore Ionomycin to achieve PKC activation, mimicking the initiating events in the antigen receptor pathway. For convenience, we used HEK293 epithelial cells, in which it has previously been shown by siRNA-mediated gene silencing and transfection of dominant-negative mutants that PMA/Ionomycin-induced NF-κB activation is dependent on CARMA1, Bcl-10, and MALT. HEK293 cells were stably transfected with a luciferase reporter gene driven by a NF-κB responsive promoter, and the responsiveness of this integrated promoter to various NF-κB inducing stimuli was confirmed, including PMA/Ionomycin and TNF. Using these cells, 96- and 384-well plate-based high throughput screening (HTS) assays were established, with good assay performance characteristics (Z′>0.5) (PubChem AID=1384). We initially screened 53,280 chemical compounds at an average concentration of 5 μM, of which 519 primary hits were obtained (based on cut-off of 50% inhibition). Of these, 248 confirmed upon repeat testing (FIG. 1).
Cell engineering. HEK293 cells were co-transfected with pUC13-4xNFκB-Luc and p-TK-puromycin-resistance plasmids. Stable clones were selected by culture in Dulbecco's Modified Eagle's Media (InVitrogen) supplemented with 10% heat-inactivated fetal bovine serum (FBS) (Hyclone), 1% v/v penicillin-streptomycin (InVitrogen) containing 1 μg/mL puromycin. Individual clones were tested for responsiveness to PMA/Ionomycin- and to TNF-induced NF-κB reporter gene activity, and a clone was selected for HTS.
HTS. NF-κB-luciferase expressing HEK293 cells were seeded at […] per well in white 96 well plates (Greiner Bio-One) in 90 μl of DMEM and incubated overnight. 10 μl of compound-containing solution was added to each well (final 1.5 μg/mL in 1% DMSO) using a liquid handler (Biomek™ FX; Beckman Coulter). After 2 h incubation, cells were stimulated using 11 μl of a PMA (final 100 ng/mL; Calbiochem) and ionomycin (final 50 ng/mL; Calbiochem) in DMEM. Cell plates were incubated for 16 h before media was removed and 40 μl of 0.5× passive lysis buffer (Promega Corp.) was added to cell plates. Plates were allowed to stand at room temperature for at least 15 minutes before adding 40 μl of 0.125× luciferin substrate (Promega Corp.) to each well. Plates were analyzed within 30 seconds with a Criterion Analyst™ using the luminescence method (0.1 second read/well).
Several compounds synthesized by the methods described herein were tested for their efficacy at inhibiting Nf-κB activation.
In general terms: In a reporter assay the amount or activity of a reporter protein is the signal.

In assay [2] the test system is TNF-induced NF-κB reporter gene activity. Kind of assay: TNF-induced NF-κB reporter counter-screen in HEK293-NFκB-Luc cells. It counts as cell-based. Conditions: TNF 10 ng/mL; CID-2858522 at concentrations as high as 4 μM. The method, then: (§1) (A) Structures of two hit compounds, CID-2858522 (left) and CID-2998237 (right) are shown; (B, C) 293-NF-κB-luc cells were pretreated for 2 hrs with various concentration of either CID-2858522 (B) or CID-29982387 (C) and then stimulated with TNF (10 ng/mL) or PMA/lonomycin (10 ng/mL; 5 ng/mL) for 16 h. Luciferase activity was measured and data were expressed as a percentage relative to control treatment with DMSO only (mean±SD; n=3). (D) 293-NF-κB-luc cells were pretreated for 2 h with various concentrations of CID-2858522 or CID-2998237, then stimulated with PMA/lonomycin for 16 h. IL-8 release into the medium was measured, expressing data as a percentage relative to control cultures treated with DMSO (mean±SD; n=3). (E) 293-NF-κB-luc cells were pretreated with CID-2858522 and then stimulated with PDBu for 16 h, IL-8 production and NF-κB luciferase activity were measured as above. (F) 293-NF-κB-luc cells were pretreated for 2 h with various concentrations of CID-2858522 or a PKC inhibitor (Bisindolylmaleimide I) at 1 μM followed by PMA/Ionomycin (10 ng/mL) stimulation for 2 h, then p65-DNA-binding activity was measured in nuclear extracts (10 μg protein), expressing data as fold-increase relative to unstimulated cells (mean±SD; n=3).
Counter Screening and Secondary Assays. […] Luciferase activity was measured using Britelite kit (Perkin Elmer). […]

The subject of assay [3] is PMA/Ionomycin-stimulated IL-8 production. As to the kind of experiment: PMA/Ionomycin-stimulated IL-8 production by HEK293 reporter cells (ELISA). It counts as cell-based, human. Conditions: CID-2998237 at concentrations as high as 4 μM. The method, then:
as §1
Lymphokine measurements. Human IL-2 or IL-8 levels in culture medium were measured by Enzyme-Linked Immunosorbent Assays (ELISAs), using BD OptEIA ELISAs (BD Biosciences, San Diego, Calif.), according to the manufacturer's protocol, using 96-well ELISA plates (BD Biosciences) and measuring absorbance within 30 minutes of initiating reactions using a SpectraMax 190 spectrophotometer (Molecular Devices).

The term IC50 denotes the concentration that gives 50% inhibition.

As to `COCCCNc1nc2cc(C)c(C)cc2n1CC(=O)c1cc(C(C)(C)C)c(OC)c(C(C)(C)C)c1` [Compound 34, 2-(2-(3-methoxypropylamino)-5,6-dimethyl-1H-benzo[d]imidazol-1-yl)-1-(3,5-di-tert-butyl-4-methoxyphenyl)ethanone], the IC50 in assay [1] was found to be 250 nM.

With z-ITED-fmk [reference compound], the “inhibition of PMA/Ionomycin-induced NF-κB luciferase activity” value in assay [1] is on record as “significantly inhibit”. Turning to `COc1c(C(C)(C)C)cc(C(=O)Cn2c(NCCCO)nc3cc(C)c(C)cc32)cc1C(C)(C)C` [Compound 32, 1-(3,5-di-tert-butyl-4-methoxyphenyl)-2-(2-(3-hydroxypropylamino)-5,6-dimethyl-1H-benzo[d]imidazol-1-yl)ethanone], the half-maximal inhibitory concentration (IC50) in assay [1] came to 70 nM. Turning to `COC(=O)C1=C(CN2CCCc3ccccc32)NC(=O)NC1c1ccc(F)cc1` (centres unmarked) [CID-2998237], the “inhibition of PMA/Ionomycin-induced NF-κB luciferase activity” value in assay [1] is recorded as “less potent”. In addition, the “inhibition of TNF-induced NF-κB reporter gene activity” value in assay [2] was “some modest inhibition”. Also, the “effect on PMA/Ionomycin-induced IL-8 production” value in assay [3] was “minimal effect”. In the case of `CCCCNc1nc2cc(C)c(C)cc2n1CC(=O)c1cc(C(C)(C)C)c(O)c(C(C)(C)C)c1` [Compound 40, 1-(3,5-di-tert-butyl-4-hydroxyphenyl)-2-(2-(butylamino)-5,6-dimethyl-1H-benzo[d]imidazol-1-yl)ethanone], the IC50 in assay [1] turned out to be 100 nM. Still for that read-out and setting: in the case of `COCCCNc1nc2cc(C)c(C)cc2n1CC(=O)c1cc(C(C)(C)C)c(O)c(C(C)(C)C)c1` [Compound 33, 2-(2-(3-methoxypropylamino)-5,6-dimethyl-1H-benzo[d]imidazol-1-yl)-1-(3,5-di-tert-butyl-4-hydroxyphenyl)ethanone] it was 250 nM.
